Assay results published in publication PMC6501643, “Crystal structure of human RIOK2 bound to a specific inhibitor” (Open Biology, 2019).

Molecular target: T1, RIO kinase 2 (RIOK2) (Homo sapiens, UniProt Q9BVS4)
T1 construct: residues 1–329
Experiment: co-crystal structure ([…] Å) and ITC
Format: binding

T1 sequence (Q9BVS4 1-329): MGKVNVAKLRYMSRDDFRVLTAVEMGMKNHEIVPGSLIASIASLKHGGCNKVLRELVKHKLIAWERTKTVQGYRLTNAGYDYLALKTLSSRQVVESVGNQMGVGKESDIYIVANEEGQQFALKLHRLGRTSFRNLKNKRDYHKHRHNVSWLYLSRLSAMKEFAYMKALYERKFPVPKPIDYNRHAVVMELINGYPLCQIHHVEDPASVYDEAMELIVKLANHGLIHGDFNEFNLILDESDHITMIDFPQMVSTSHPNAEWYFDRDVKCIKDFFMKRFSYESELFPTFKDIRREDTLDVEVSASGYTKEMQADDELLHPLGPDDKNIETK

O=C(Cc1ccc2ccccc2c1)Nc1ccccn1 [compound 9]
Kd: 0.393 µM
